Data from US20120016019A1, “PHARMACEUTICAL COMPOSITION FOR TREATING OR PREVENTING CANCER” (priority 2010, published 2012).
Where “and” joins values, the source holds several entries; their conditions need not be identical. Equal entries are not always repeated. Entries after “also recorded” stand apart in the source; their conditions may differ. Where two headings read alike, the source gives them in different places.

How the values were obtained:
[1] = test system: MDA-MB-468; assay: Cell counts, MDA-MB-468; assay type: cell-based; conditions: for cell counts: single wells
Experimental: (§4) Cancer cell lines HCC 1419, MCF-7, MDA-MB-468, SKBR3, PC3, HT1299, Saos-2, C-6, AsPc, MDA-MB-231, RKO, HeLa and TT, and normal cell lines HME 50 HT, BJ and CCD-1074sk were tested for changes in metabolism (XTT assay) and cell death (cell counts).
(§5) Cells were harvested using Trypsin-EDTA at the designated time points. […] Two 48-well plates were used per cell line, and they were measured at 0 h, 12 h, 24 h, 48 h, 4 d and 7 d, respectively.
(§6) In the 1st plate, cells were treated with the composition according to the invention and medium was changed at 0 h and 3 d. […] As a result, LC-50 curves were generated in the 1st week.

[2] = test system: SKBR3; assay: Cell counts, SKBR3; assay type: cell-based; conditions: for cell counts: single wells
Experimental: as §4, §5, §6

[3] = test system: RKO; assay: Cell counts, RKO; assay type: cell-based
Experimental: As a result, LC-50 curves were generated in the 1st week.
In the 2nd plate, 7 d of the 1st week (LC-50) is the same as 0 h of the 2nd week (recovery).
At 0 h of the 2nd week, medium was exchanged with untreated medium for the remainder of the experiment. The untreated controls were not measured in the 2nd week (recovery) due to overconfluence by the end of the 1st week. As a result, Recovery curves were generated in the 2nd week.

[4] = test system: C-6; assay: Cell counts, C-6; assay type: cell-based, rat
Experimental: as §4, §6
C-6 is glioblastoma cells.

[5] = test system: MDA-MB-231; conditions: human, 0 h, 220 nM
Experimental: (§1) Cells were plated into 48-well Corning CellBind™ plates at densities of 20,000 cells for normal cells and 10,000˜20,000 cells for cancer cells. 24 to 48 h after plating, cells were treated with the composition according to the invention at concentrations of 4.5e-2M. The first time point treated with the composition of the invention is 0 h. At 3 days after the first treatment with the composition of the invention, medium was changed and the composition of the invention at the same concentrations were added to the cultured cells.
(§2) Cells were harvested using Trypsin-EDTA at the designated time points. When total cells for each well were counted with a Beckman-Coulter Z1 Particle Characterization Unit, the vertical axis represents 1/20 of cell number in the Figures attached to the specification, while when counted with a Beckman-Coulter Vi-Cell, the vertical axis represents cell number in the Figures. Two 48-well plates were used per cell line, and they were measured at 0 h, 12 h, 24 h, 48 h, 4 d and 7 d, respectively.
(§3) The viability was determined by using the trypan blue staining in the well of cell counting.

[6] = test system: RKO; conditions: human, 220 nM
Experimental: as §1, §2, §3

[7] = test system: HeLa; conditions: human, 0 h, 220 nM
Experimental: as §1, §2, §3

[8] = test system: SKBR3; conditions: human, 220 nM
Experimental: as §1, §2, §3

[9] = test system: MCF-7; assay: Cell counts, MCF-7; assay type: cell-based; conditions: for cell counts: single wells
Experimental: as §4, §5, §6

[10] = test system: TT; assay: Viability by trypan blue staining, TT; assay type: cell-based; conditions: for viability (%) calculated from the cell counts: single value

SMILES: CC(=O)O[C@H]1C(=O)[C@@]2(C)[C@H]([C@H](OC(=O)c3ccccc3)[C@]3(O)C[C@H](OC(=O)[C@H](O)[C@@H](NC(=O)c4ccccc4)c4ccccc4)C(C)=C1C3(C)C)[C@]1(OC(C)=O)CO[C@@H]1C[C@@H]2O [Taxol]
- cell counts (trend) [1]: increasing; also recorded: again recovering
- cell counts, Mean value ([1]; 1st week (LC50), 0 h): 36000
- cell counts ([1]; 1st week (LC50), 0 h): 32000 and 40000
- cell counts, Mean value ([1]; 1st week (LC50), 24 h): 23333
- cell counts ([1]; 1st week (LC50), 24 h): 24000 and 30000 and 16000
- cell counts, Mean value ([1]; 1st week (LC50), 48 h): 13000
- cell counts ([1]; 1st week (LC50), 48 h): 10000 and 12000 and 17000
- cell counts, Mean value ([1]; 1st week (LC50), 4 d): 17667
- cell counts ([1]; 1st week (LC50), 4 d): 15000 and 18000 and 20000
- cell counts, Mean value ([1]; 1st week (LC50), 7 d): 9000
- cell counts, Mean value ([1]; 2nd week (recovery), 0 h): 8333
- cell counts, Mean value ([1]; 2nd week (recovery), 24 h): 3667
- cell counts ([1]; 2nd week (recovery), 24 h): 4000 and 3000
- cell counts, Mean value ([1]; 2nd week (recovery), 48 h): 8333
- cell counts, Mean value ([1]; 2nd week (recovery), 4 d): 9333
- cell counts ([1]; 2nd week (recovery), 4 d): 9000 and 10000
- cell counts, Mean value ([1]; 2nd week (recovery), 7 d): 11667
- cell counts ([1]; 2nd week (recovery), 7 d): 9000 and 11000 and 15000
- cell counts, Mean value ([2]; 1st week (LC50), 0 h): 2667
- cell counts ([2]; 1st week (LC50), 0 h): 2000 and 4000
- cell counts, Mean value ([2]; 1st week (LC50), 24 h): 9333
- cell counts ([2]; 1st week (LC50), 24 h): 6000 and 11000
- cell counts, Mean value ([2]; 1st week (LC50), 48 h): 4000
- cell counts ([2]; 1st week (LC50), 48 h): 4000
- cell counts, Mean value ([2]; 1st week (LC50), 4 d): 1000
- cell counts ([2]; 1st week (LC50), 4 d): 1000
- cell counts, Mean value ([2]; 1st week (LC50), 7 d): 3000
- cell counts, Mean value ([2]; 2nd week (recovery), 0 h): 70667
- cell counts ([2]; 2nd week (recovery), 0 h): 60000 and 80000 and 72000
- cell counts, Mean value ([2]; 2nd week (recovery), 24 h): 49333
- cell counts ([2]; 2nd week (recovery), 24 h): 32000 and 60000 and 56000
- cell counts, Mean value ([2]; 2nd week (recovery), 48 h): 44000
- cell counts ([2]; 2nd week (recovery), 48 h): 56000 and 36000 and 40000
- cell counts, Mean value ([2]; 2nd week (recovery), 4 d): 17250
- cell counts ([2]; 2nd week (recovery), 4 d): 15000 and 12500 and 22000
- cell counts, Mean value ([2]; 2nd week (recovery), 7 d): 10000
- cell counts ([2]; 2nd week (recovery), 7 d): 10000 and 12000 and 8000
- cell counts ([3]; 1st week (LC50), 0 h): 48000 and 49000 and 54000
- cell counts, Mean value ([3]; 1st week (LC50), 0 h): 50333
- cell counts ([3]; 1st week (LC50), 24 h): 101600 and 98000 and 99800
- cell counts, Mean value ([3]; 1st week (LC50), 24 h): 99800
- cell counts, Mean value ([3]; 1st week (LC50), 48 h): 78733
- cell counts ([3]; 1st week (LC50), 4 d): 36000
- cell counts, Mean value ([3]; 1st week (LC50), 4 d): 36000
- cell counts ([3]; 1st week (LC50), 7 d): 38600 and 25400 and 22800
- cell counts, Mean value ([3]; 1st week (LC50), 7 d): 28933
- cell counts ([3]; 2nd week (recovery), 0 h): 57000 and 58000 and 53000
- cell counts, Mean value ([3]; 2nd week (recovery), 0 h): 56000
- cell counts ([3]; 2nd week (recovery), 24 h): 26000 and 31000 and 39000
- cell counts, Mean value ([3]; 2nd week (recovery), 24 h): 32000
- cell counts ([3]; 2nd week (recovery), 48 h): 35000 and 38000 and 30000
- cell counts, Mean value ([3]; 2nd week (recovery), 48 h): 34333
- cell counts ([3]; 2nd week (recovery), 4 d): 39000 and 31000 and 26000
- cell counts, Mean value ([3]; 2nd week (recovery), 4 d): 32000
- cell counts, Mean value ([3]; 2nd week (recovery), 7 d): 35000
- cell counts ([4]; 1st week (LC50), 0 h): 6111 and 7077 and 4897
- cell counts, Mean value ([4]; 1st week (LC50), 0 h): 6028
- cell counts ([4]; 1st week (LC50), 12 h): 3726 and 4240
- cell counts, Mean value ([4]; 1st week (LC50), 12 h): 4469
- cell counts ([4]; 1st week (LC50), 24 h): 3895 and 3853 and 3340
- cell counts, Mean value ([4]; 1st week (LC50), 24 h): 3696
- cell counts ([4]; 1st week (LC50), 48 h): 6630 and 6722
- cell counts, Mean value ([4]; 1st week (LC50), 48 h): 6243
- cell counts ([4]; 1st week (LC50), 4 d): 6026 and 6751 and 6905
- cell counts, Mean value ([4]; 1st week (LC50), 4 d): 6561
- cell counts, Mean value ([4]; 1st week (LC50), 7 d): 4450
- cell counts ([4]; 2nd week (recovery), 0 h): 2984 and 3948 and 4207
- cell counts, Mean value ([4]; 2nd week (recovery), 0 h): 3713
- cell counts ([4]; 2nd week (recovery), 24 h): 3392 and 4285 and 3984
- cell counts, Mean value ([4]; 2nd week (recovery), 24 h): 3887
- cell counts ([4]; 2nd week (recovery), 48 h): 3166 and 3930
- cell counts, Mean value ([4]; 2nd week (recovery), 48 h): 4184
- cell counts ([4]; 2nd week (recovery), 4 d): 4825 and 3184
- cell counts, Mean value ([4]; 2nd week (recovery), 4 d): 4031
- cell counts ([4]; 2nd week (recovery), 7 d): 3989 and 4316 and 3634
- cell counts, Mean value ([4]; 2nd week (recovery), 7 d): 3980
- response of the cells ([4]; composition: after 4 days of exposure): resistance to Taxol
- viability (%), Mean value [5]: 44.2%
- viability (%), Mean value ([6]; 0 h): 40%
- viability (%), Mean value ([6]; 24 h): 43%
- viability (%), Mean value [7]: 75.4%
- viability (%), Mean value ([8]; 24 h): 70%
- viability (%) calculated from the cell counts ([8]; 48 h): 0%
- viability (%), Mean value ([8]; 48 h): 17%
- viability (%) calculated from the cell counts ([8]; 4 d): 0%
- viability (%), Mean value ([8]; 4 d): 33%
- viability (%), Mean value ([8]; 7 d): 50%
- cell counts, Mean value ([9]; 1st week (LC50), 0 h): 55333
- cell counts ([9]; 1st week (LC50), 0 h): 39000 and 67000 and 60000
- cell counts, Mean value ([9]; 1st week (LC50), 24 h): 43667
- cell counts ([9]; 1st week (LC50), 24 h): 39000 and 54000 and 38000
- cell counts, Mean value ([9]; 1st week (LC50), 48 h): 23333
- cell counts ([9]; 1st week (LC50), 48 h): 21000 and 19000 and 30000
- cell counts, Mean value ([9]; 1st week (LC50), 4 d): 21667
- cell counts, Mean value ([9]; 1st week (LC50), 7 d): 4333
- cell counts ([9]; 1st week (LC50), 7 d): 4000 and 5000
- cell counts, Mean value ([9]; 2nd week (recovery), 0 h): 2032
- cell counts ([9]; 2nd week (recovery), 0 h): 2361 and 1648 and 2087
- cell counts, Mean value ([9]; 2nd week (recovery), 24 h): 646
- cell counts ([9]; 2nd week (recovery), 24 h): 807 and 728
- cell counts, Mean value ([9]; 2nd week (recovery), 48 h): 2084
- cell counts ([9]; 2nd week (recovery), 48 h): 1726 and 2010 and 2517
- cell counts, Mean value ([9]; 2nd week (recovery), 4 d): 2013
- cell counts ([9]; 2nd week (recovery), 4 d): 2135 and 1892 and 2011
- cell counts, Mean value ([9]; 2nd week (recovery), 7 d): 1772
- cell counts ([9]; 2nd week (recovery), 7 d): 2098 and 1693 and 1524
- viability (%) ([10]; 1st week (LC50), 0 h): 79.5% and 80.8% and 78.4%
- viability (%), Mean value ([10]; 1st week (LC50), 0 h): 79.6%
- viability (%) ([10]; 1st week (LC50), 24 h): 76.5% and 64.7% and 72.7%
- viability (%), Mean value ([10]; 1st week (LC50), 24 h): 71.3%
- viability (%) ([10]; 1st week (LC50), 48 h): 72.5% and 72% and 76.9%
- viability (%), Mean value ([10]; 1st week (LC50), 48 h): 73.8%
- viability (%) ([10]; 1st week (LC50), 4 d): 70.1%
- viability (%), Mean value ([10]; 1st week (LC50), 4 d): 67.8%
- viability (%) ([10]; 1st week (LC50), 7 d): 75% and 37.5%
- viability (%), Mean value ([10]; 1st week (LC50), 7 d): 59.7%
- viability (%), Mean value ([10]; 2nd week (recovery), 0 h, trypan blue, mean value): 65%
- viability (%) calculated from the cell counts ([10]; 2nd week (recovery), 0 h, trypan blue): 70% and 75% and 50%
- viability (%), Mean value ([10]; 2nd week (recovery), 24 h, trypan blue, mean value): 41.1%
- viability (%), Mean value ([10]; 2nd week (recovery), 48 h, trypan blue, mean value): 35.1%
- viability (%), Mean value ([10]; 2nd week (recovery), 4 d, trypan blue, mean value): 37.6%
- viability (%), Mean value ([10]; 2nd week (recovery), 7 d, trypan blue, mean value): 33.5%
- viability (%) calculated from the cell counts ([10]; 2nd week (recovery), 7 d, trypan blue): 25% and 42.3%
